# Measured values taken from PMC7004565, “Nucleotide inhibition of the pancreatic ATP-sensitive K^+ channel explored with patch-clamp fluorometry” (eLife, 2020).
# Where “and” joins values, the source holds several entries; their conditions need not be identical. Equal values may be shown once. Read-outs that look alike come from different tables or passages of the source.
# Key:
# [1] = target: Kir6.2-GFP + SUR1 (Homo sapiens, UniProt Q14654); test: Bayesian MWC-type model fits to combined patch-clamp fluorometry data; type: biochemical; parameters: full length, fully ANAP-labelled Kir6.2 protein was produced and successfully trafficked to the membrane in the presence of SUR1; expressed in transfected cells; host or cells: HEK-293T
# Sequence of Kir6.2-GFP + SUR1 (Q14654 whole entry): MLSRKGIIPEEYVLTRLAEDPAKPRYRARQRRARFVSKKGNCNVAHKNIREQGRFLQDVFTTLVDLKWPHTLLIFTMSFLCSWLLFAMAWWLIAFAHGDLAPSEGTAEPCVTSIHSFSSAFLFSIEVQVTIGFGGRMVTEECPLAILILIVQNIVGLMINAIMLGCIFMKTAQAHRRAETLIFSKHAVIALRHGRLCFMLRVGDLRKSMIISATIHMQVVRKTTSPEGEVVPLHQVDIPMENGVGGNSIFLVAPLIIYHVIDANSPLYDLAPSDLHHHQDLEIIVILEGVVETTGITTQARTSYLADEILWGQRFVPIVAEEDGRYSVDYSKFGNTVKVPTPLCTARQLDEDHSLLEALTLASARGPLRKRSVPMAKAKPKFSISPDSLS
# Sequence of Kir6.2-GFP + SUR1 (Q09428 whole entry partner): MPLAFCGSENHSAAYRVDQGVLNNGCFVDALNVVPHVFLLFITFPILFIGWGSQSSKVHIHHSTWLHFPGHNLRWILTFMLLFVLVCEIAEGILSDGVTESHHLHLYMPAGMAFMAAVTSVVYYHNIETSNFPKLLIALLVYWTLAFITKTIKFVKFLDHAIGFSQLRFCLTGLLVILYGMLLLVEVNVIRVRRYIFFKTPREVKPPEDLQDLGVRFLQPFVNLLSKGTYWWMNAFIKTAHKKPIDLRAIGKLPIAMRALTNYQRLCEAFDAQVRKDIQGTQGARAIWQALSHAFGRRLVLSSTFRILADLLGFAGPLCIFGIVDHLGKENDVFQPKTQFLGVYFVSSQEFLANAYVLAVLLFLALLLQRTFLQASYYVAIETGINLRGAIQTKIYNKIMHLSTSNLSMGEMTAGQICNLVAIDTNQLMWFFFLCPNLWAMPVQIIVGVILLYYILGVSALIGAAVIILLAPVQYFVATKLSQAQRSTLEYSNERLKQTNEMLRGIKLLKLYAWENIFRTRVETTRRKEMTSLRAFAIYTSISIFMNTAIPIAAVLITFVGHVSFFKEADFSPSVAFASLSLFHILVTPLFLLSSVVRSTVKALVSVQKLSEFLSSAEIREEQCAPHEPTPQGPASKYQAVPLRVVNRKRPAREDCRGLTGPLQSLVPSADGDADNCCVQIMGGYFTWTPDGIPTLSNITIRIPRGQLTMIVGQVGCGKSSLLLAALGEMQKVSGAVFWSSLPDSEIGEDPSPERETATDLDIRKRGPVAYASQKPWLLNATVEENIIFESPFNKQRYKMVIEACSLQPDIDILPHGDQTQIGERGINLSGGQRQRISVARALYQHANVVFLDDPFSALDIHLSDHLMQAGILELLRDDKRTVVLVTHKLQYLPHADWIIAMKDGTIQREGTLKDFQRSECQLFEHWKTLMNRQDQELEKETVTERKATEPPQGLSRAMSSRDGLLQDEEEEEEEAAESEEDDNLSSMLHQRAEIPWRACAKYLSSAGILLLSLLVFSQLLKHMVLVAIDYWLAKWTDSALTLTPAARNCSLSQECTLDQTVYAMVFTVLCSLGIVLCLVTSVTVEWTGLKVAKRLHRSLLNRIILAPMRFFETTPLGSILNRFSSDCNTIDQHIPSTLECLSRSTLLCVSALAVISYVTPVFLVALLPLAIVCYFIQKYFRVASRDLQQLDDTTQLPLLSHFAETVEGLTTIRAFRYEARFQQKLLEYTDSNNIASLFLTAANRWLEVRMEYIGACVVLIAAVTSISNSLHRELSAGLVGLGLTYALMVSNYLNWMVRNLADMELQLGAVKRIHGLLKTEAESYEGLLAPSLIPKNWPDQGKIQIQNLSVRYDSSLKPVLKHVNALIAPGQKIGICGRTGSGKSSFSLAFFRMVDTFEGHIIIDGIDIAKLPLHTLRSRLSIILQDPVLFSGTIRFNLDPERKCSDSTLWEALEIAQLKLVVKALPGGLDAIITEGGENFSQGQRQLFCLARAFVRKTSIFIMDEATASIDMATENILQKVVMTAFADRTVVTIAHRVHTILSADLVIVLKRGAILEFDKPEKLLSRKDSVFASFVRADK
# Text: (§1) Our simultaneous binding and current measurements were well fit with a Monod-Wyman-Changeux (MWC)-type model (Figure 2D,E; [Monod et al., 1965]) which has been previously proposed to explain KATP channel inhibition ([Enkvetchakul and Nichols, 2003]; [Craig et al., 2008]; [Vedovato et al., 2015]). In our MWC-type model, each ligand binding event ( KA ) is independent and each bound ligand favours the closed state by the same factor ( D ). Simultaneous measurement of binding (fluorescence) and gating (current) allowed us to obtain well constrained fits to our model. To obtain free parameter ( L , KA , D ) estimates and verify that each parameter was well and uniquely determined, we employed a Bayesian Markov chain Monte Carlo (MCMC) method previously employed by [Hines et al. (2014)]. Using this approach, we constructed posterior probability distributions for the free parameters of our MWC-type model (Figure 2F, Table 3). […] Our estimate of L was quite low and broadly distributed. We repeated our fits with L fixed to a value consistent with previous single channel measurements (0.8, Popen=0.45; [John et al., 1998]; [Enkvetchakul et al., 2000]; [Ribalet et al., 2006]). This had only a very small effect on our estimates of D and KA (Figure 2—figure supplement 1). The broad distribution of L in our fit may represent current rundown which occurs during our patch-clamp recordings and is expected to affect the open-closed equilibrium.
# (§2) In addition to the full MWC-type model we considered alternate models (Figure 2—figure supplement 2). These included a model in which only the first binding event influences the open-closed equilibrium of the channel (single-binding model; Figure 2—figure supplement 2B, Table 3), and an MWC-style model with an additional parameter C to allow for direct negative cooperativity between binding sites (negative cooperativity model; Figure 2—figure supplement 2C, Table 3). The single-binding model yielded very similar parameter estimates to our full MWC-type model (Figure 2—figure supplement 2D, Table 3). This is a consequence of D being so low that even in the MWC-type model most channels are closed when only a single nucleotide is bound. The cooperative model improved our fits, but not enough to justify the inclusion of an additional free parameter (see Discussion).
# (§3) The MWC-type models considered (Figure 2 and Figure 2—figure supplement 2) were formulated as follows:(3) F/Fmax=KA[TNPATP](1+KA[TNPATP])^3+LDKA[TNPATP](1+DKA[TNPATP])^3/(1+KA[TNPATP])^4+L(1+DKA[TNPATP])^4 (4) open channels/total channels=L(1+DKA[TNPATP])^4/(1+KA[TNPATP])^4+L(1+DKA[TNPATP])^4
# (§4) The first was similar to the MWC-type model, except that the channels close after one molecule of TNP-ATP binding with subsequent binding events having no effect.(7) F/Fmax=LDKA[TNPATP](1+3KA[TNPATP]+3KA2[TNPATP]^2+KA3[TNPATP]^3)+KA[TNPATP](1+KA[TNPATP])^3/L(1+4DKA[TNPATP]+6DKA2[TNPATP]^2+4DKA3[TNPATP]^3+DKA4[TNPATP]^4)+(1+KA[TNPATP])^4 (8) I/Imax=L(1+4DKA[TNPATP]+6DKA2[TNPATP]^2+4DKA3[TNPATP]^3+DKA4[TNPATP]^4)/L(1+4DKA[TNPATP]+6DKA2[TNPATP]^2+4DKA3[TNPATP]^3+DKA4[TNPATP]^4)+(1+KA[TNPATP])^4⋅1+L/L
# (§5) The second alternate model was the same as the full MWC model, but with an additional term C describing binding cooperativity between Kir6.2 subunits.(9) F/Fmax=LDKA[TNPATP](1+3CDKA[TNPATP]+3C^2D^2KA2[TNPATP]^2+C^3D^3KA3[TNPATP]^3)+KA[TNPATP](1+3CKA[TNPATP])+3C^2KA2[TNPATP]^2+C^3KA3[TNPATP]^3)/L(1+4DKA[TNPATP]+6CD^2KA2[TNPATP]^2+4C^2D^3KA3[TNPATP]^3+C^3D^4KA4[TNPATP]^4)+1+4KA[TNPATP]+6CKA2[TNPATP]^2+4C^2KA3[TNPATP]^3+C^3KA4[TNPATP]^4 (10) I/Imax=L(1+4DKA[TNPATP]+6CD^2KA2[TNPATP]^2+4C^2D^3KA3[TNPATP]^3+C^3D^4KA4[TNPATP]^4)/L(1+4DKA[TNPATP]+6CD^2KA2[TNPATP]^2+4C^2D^3KA3[TNPATP]^3+C^3D^4KA4[TNPATP]^4)+1+4KA[TNPATP]+6C^2KA2[TNPATP]^2+4C^2KA3[TNPATP]^3+C^3KA4[TNPATP]^4⋅1+L/L […]
# [2] = target: Kir6.2*,C166S-GFP + SUR1 (Homo sapiens, UniProt Q14654, C166S); test: as above; type: biochemical; parameters: ANAP labelling is specific and only full-length Kir6.2 is expressed at the cell membrane; expressed in transfected cells; host or cells: HEK-293T; conditions: for Kd: read-out: KA (intrinsic binding affinity to the closed state) (converted)
# Sequence of Kir6.2*,C166S-GFP + SUR1 (Q14654 whole entry C166S): as the sequence (Q14654 whole entry) above, with C166S counted along it
# Sequence of Kir6.2*,C166S-GFP + SUR1 (Q09428 whole entry partner): as the sequence (Q09428 whole entry partner) above
# Text: as §1, §2, §3, §4, §5
# [3] = Full MWC model, median estimate
# [4] = Single-site (single-binding) model
structure (smiles),measurement,setting,value
"Nc1ncnc2c1ncn2[C@@H]1O[C@H](COP(=O)(O)OP(=O)(O)OP(=O)(O)O)[C@H]2OC3(O[C@H]21)C([N+](=O)[O-])=CC(=[N+]([O-])[O-])C=C3[N+](=O)[O-] (some centres unmarked) [TNP-ATP, trinitrophenyl-ATP]",KA,"[1]; Full MWC model, PCF, inhibitory site on Kir6.2",21000 M⁻¹
same,Kd,"[1]; Full MWC model, from KA, read-out: KD",47.9 µM and 48 µM
same,L,"[1]; Full MWC model, linear value",0.09
same,D (factor by which nucleotide binding favours channel closure),[1]; [3],0.04
same,L (unliganded open-closed equilibrium constant),[1]; [3],−1.05 log10
same,Popen,"[1]; Full MWC model, unliganded, from L",0.08
same,C (binding cooperativity between Kir6.2 subunits),[1]; Negative cooperativity model,0.17
same,D (factor by which nucleotide binding favours channel closure),[1]; Negative cooperativity model,0.15
same,L (unliganded open-closed equilibrium constant),[1]; Negative cooperativity model,−0.42 log10
same,Kd,"[1]; Negative cooperativity model, read-out: KA (intrinsic binding affinity to the closed state) (converted)",15.1 µM
same,D (factor by which nucleotide binding favours channel closure),[1]; [4],0.05
same,L (unliganded open-closed equilibrium constant),[1]; [4],−1.06 log10
same,Kd,"[1]; Single-site (single-binding) model, read-out: KA (intrinsic binding affinity to the closed state) (converted)",46.8 µM
same,D (factor by which nucleotide binding favours channel closure),[2]; [3],0.84
same,L (unliganded open-closed equilibrium constant),[2]; [3],0.29 log10
same,Kd,[2]; [3],66.1 µM
same,C (binding cooperativity between Kir6.2 subunits),[2]; Negative cooperativity model,0.52
same,D (factor by which nucleotide binding favours channel closure),[2]; Negative cooperativity model,0.83
same,L (unliganded open-closed equilibrium constant),[2]; Negative cooperativity model,0.32 log10
same,Kd,[2]; Negative cooperativity model,37.2 µM
same,D (factor by which nucleotide binding favours channel closure),[2]; [4],0.70
same,L (unliganded open-closed equilibrium constant),[2]; [4],0.09 log10
same,Kd,[2]; [4],70.8 µM
